Values of other authors in patent publication US9433620B2, “Pharmaceutical compositions of lurasidone” (CADILA HEALTHCARE LIMITED, priority 2011, dated 2016).
Where a name gives a salt, the structure may show the parent alone.

O=C1[C@@H]2[C@H]3CC[C@H](C3)[C@@H]2C(=O)N1C[C@@H]1CCCC[C@H]1CN1CCN(c2nsc3ccccc23)CC1 [lurasidone, N-[4-[4-(1,2-benzisothiazol-3-yl)-1-piperazinyl]-(2R,3R)-2,3-tetramethyle-ne-butyl]-(1′R,2′S,3′R,4′S)-2,3-bicyclo[2,2,1]heptanedicarboxylmide hydrochloride]
solubility in water: less than several
